Literature values in article PMC8231113, “Protein Secondary Structure Affects Glycan Clustering in Native Mass Spectrometry” (Life, 2021).
pKd: −log10 of the molar value.

What was measured:
[1] = target: wildtype GII.4 Saga P dimer; settings: read-out: KD, result from NMR; cited from earlier work
[2] = test system: deamidated GII.4 Saga P dimer; design: method as in PMID 30899001, PMID 30071731; settings: NMR and HDX MS; cited from earlier work
hNoV P dimers = test system: hNoV P dimers; design: method as in PMID 22170811, PMID 30899001; settings: cited from earlier work

Row | Structure (SMILES) | pKd [1] | reduction of glycan binding affinity of deamidated P dimer compared to the wildtype [2] | binding to hNoV (hNoV P dimers)
1 | C[C@@H]1O[C@@H](O[C@H]2C(O)O[C@H](CO)[C@H](O)[C@@H]2O[C@H]2O[C@H](CO)[C@H](O)[C@H](O)[C@H]2O)[C@@H](O)[C@H](O)[C@@H]1O (some centres unmarked) [B trisaccharide] | 2.17 | roughly by an order of magnitude | –
2 | O=C[C@@H](O)[C@H](O)[C@H](O)[C@@H](O)CO [L-galactose] | – | – | known not to bind
3 | C[C@H](O)[C@@H](O)[C@@H](O)[C@H](O)C=O [fucose] | 1.66 | roughly by an order of magnitude | –
